Laboratory results reported in paper PMC9653649 (Molecules, 2022).

What was measured:
[1] = tested on: Human Dermal Fibroblast (HDF) cell line; assay: Cell viability using MTT assay; type: cell-based; details: 24 h, 0.1-100 µM, read-out: IC50 against fibroblast cells
Procedure: The synthesized compounds were screened for their cytotoxic activities against fibroblast cell lines at different concentrations for 24 h using MTT assay. […] Human Dermal Fibroblast (HDF) cell line was bought from the American Type Culture Collection (ATCC; Minnesota, USAHB-8065). It was cultured in Park Memorial Institute (RPMI-1640) culture media with glutamine 2 mM (bio west, Nampa, cat. no. L0498-500), 10% fetal bovine serum (PAA, Pasching Austria, cat. no. A11-151) and penicillin with streptomycin 1% (Lonza, Verviers, Belgium, cat. no. DE17-602E). The HDF cells were grown in 50 cm^2 flask (Greinerbio-one GmbH Maybach-str. 272636 Frickenhausen, Germany) and preserved in a typical humidified incubator supplied with 5% CO2, 95% air at 37 °C (New Brunswick Scientific-Innova co-170). Cells were washed with cold phosphate-buffered saline, trypsinized, harvested and centrifuged to form cell pellets. The cultured HDFa were plated in 96 well microplates at a concentration of 5 × 10^4 cells per well 24 h before the MTT assay to allow microplate adherence. MTT Reagent was provided, prepared for use, and acquired from Biospes, China, Cat n#BAR1005-1. According to the manufacturer protocol, the cultured cells were presented with different concentrations of the assessed agents. 20 μL of MTT solution was filled with each well. For 4 h, the plate was kept at 37 °C. After incubation, 100 μL of formazan diluent buffer (Biospes, Chongqing, China, Cat n#BAR1005-1) was poured into each well. ELISA plate reader (Stat Fax 2200, Awareness Technologies, Palm City, FL, USA) measured color absorbance at 540 nm. Three readings were taken on three different days and averaged for each sample. At last, cell survival was determined according to the following equation: %cell survival=Asample/Acontrol×100% Acontrol is the absorbance of the cell culture after adding MTT and formazan buffer, but without treatment by any drug candidate. […] IC50 values were then calculated by curve-fitting involving non-linear regression. […]

COX-2 = assay: Western blot analysis of COX-2; type: cell-based; details: versus untreated control
Description: (§1) The anti-inflammatory activities of compounds HI and HL were further confirmed by Western blotting analysis of COX-1/COX-2.
(§2) For validating the anti-inflammatory pathway at the protein expression level, we used the immunoblotting (Western blot) technique.

COX-1 = assay: Western blot analysis of COX-1; type: cell-based; details: versus untreated control
Description: as §1, §2

ovine COX-1 = target: T1, ovine COX-1 (Ovis aries, UniProt P05979); assay: In vitro COX-1 isozyme inhibition assay (EIA/ELISA kit, Cayman)
T1 sequence (P05979 25-600): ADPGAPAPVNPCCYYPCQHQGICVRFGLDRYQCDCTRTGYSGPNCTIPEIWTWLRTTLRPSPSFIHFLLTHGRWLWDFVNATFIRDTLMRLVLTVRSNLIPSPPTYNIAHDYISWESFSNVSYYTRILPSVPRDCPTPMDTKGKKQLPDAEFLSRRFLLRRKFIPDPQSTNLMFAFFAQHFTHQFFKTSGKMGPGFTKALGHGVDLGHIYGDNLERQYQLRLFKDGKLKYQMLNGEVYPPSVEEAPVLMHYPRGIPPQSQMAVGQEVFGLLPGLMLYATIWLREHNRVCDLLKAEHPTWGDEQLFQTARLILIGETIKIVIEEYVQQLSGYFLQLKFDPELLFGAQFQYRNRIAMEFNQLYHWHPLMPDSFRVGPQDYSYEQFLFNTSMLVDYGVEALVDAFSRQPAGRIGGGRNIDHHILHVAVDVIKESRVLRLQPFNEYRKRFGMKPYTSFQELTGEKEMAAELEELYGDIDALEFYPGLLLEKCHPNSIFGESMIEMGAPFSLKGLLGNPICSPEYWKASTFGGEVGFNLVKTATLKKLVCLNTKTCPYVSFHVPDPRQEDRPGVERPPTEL

human recombinant COX-2 = target: T2, human recombinant COX-2 (Homo sapiens, UniProt P35354); assay: In vitro COX-2 isozyme inhibition assay (EIA/ELISA kit, Cayman); details: for COX-2 SI (COX-1 IC50/COX-2 IC50): selectivity index
T2 sequence (P35354 18-604): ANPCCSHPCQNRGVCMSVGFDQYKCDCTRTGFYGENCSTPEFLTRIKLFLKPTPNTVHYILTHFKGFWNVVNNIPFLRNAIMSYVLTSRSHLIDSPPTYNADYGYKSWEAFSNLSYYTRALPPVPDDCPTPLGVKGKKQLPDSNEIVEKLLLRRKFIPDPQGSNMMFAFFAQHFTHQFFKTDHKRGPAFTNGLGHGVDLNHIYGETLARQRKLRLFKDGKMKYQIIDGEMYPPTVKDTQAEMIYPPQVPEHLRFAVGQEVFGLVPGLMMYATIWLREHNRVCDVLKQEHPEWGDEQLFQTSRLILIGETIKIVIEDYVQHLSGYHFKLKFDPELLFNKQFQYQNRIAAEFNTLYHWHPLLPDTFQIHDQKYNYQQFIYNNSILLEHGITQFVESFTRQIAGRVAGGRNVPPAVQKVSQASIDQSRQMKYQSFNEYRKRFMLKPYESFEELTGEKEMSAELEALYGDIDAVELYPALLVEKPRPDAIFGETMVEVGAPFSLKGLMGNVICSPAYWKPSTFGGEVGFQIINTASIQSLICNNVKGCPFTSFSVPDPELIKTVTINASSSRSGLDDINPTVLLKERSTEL

[2] = Solubility examined in various solvents; type: physicochemical; details: organic solvents
Description: . H% = 7.46 (7.51); N% = 8.63 (8.55), calc. (found), respectively (Table 1).

SMILES | melting point | IC50 [1] | COX-2 protein level by Western blot (COX-2) | COX-1 protein level by Western blot (COX-1) | IC50 (ovine COX-1) | IC50 (human recombinant COX-2) | COX-2 SI (COX-1 IC50/COX-2 IC50) (human recombinant COX-2) | Solubility in solvents [2]
CC(C)Cc1ccc(C(C)C(=O)NN)cc1 (stereo not drawn) [HI, 2-(4-Isobutylphenyl) Propane Hydrazide] | 85 °C | 3.9 µM | downregulation | downregulation | 7.5 µM | 4.3 µM | 1.7 | 
CC(C)Cc1ccc(C(C)C(=O)NN=Cc2ccccc2O)cc1 (stereo not drawn) [HL] |  | 4.13 µM | downregulation | downregulation | 8.6 µM | 4.9 µM | 1.8 | soluble in DMSO, DMF, ethanol, methanol, and acetonitrile
CC(C)Cc1ccc(C(C)C(=O)O)cc1 (stereo not drawn) [Ibuprofen, reference compound] |  | 30.6 µM |  |  |  |  |  | 
